The values that follow come from patent US10381110B2, “Molecules” (University of Dundee, priority 2010, dated 2019).

The target in assay [1] is T1, α1B (Alpha1B) (Homo sapiens, UniProt P35368).
T1 sequence (P35368 1-520): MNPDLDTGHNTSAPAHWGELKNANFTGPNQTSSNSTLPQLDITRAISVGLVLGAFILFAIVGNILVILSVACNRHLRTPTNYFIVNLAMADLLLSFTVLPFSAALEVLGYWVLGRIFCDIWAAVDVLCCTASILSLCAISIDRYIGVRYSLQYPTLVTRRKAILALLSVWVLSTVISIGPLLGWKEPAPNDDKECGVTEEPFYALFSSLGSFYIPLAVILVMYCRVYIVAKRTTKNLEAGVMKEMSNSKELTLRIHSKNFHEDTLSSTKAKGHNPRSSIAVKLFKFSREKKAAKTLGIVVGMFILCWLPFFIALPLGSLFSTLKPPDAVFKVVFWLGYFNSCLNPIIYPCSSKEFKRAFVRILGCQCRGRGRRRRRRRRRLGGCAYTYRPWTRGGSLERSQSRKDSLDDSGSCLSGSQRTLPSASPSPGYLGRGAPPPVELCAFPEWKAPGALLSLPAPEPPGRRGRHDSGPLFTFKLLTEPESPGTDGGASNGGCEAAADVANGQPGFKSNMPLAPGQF
The assay is described as follows: Secondary radioligand binding assay (Ki).
Description: (§1) Radioligand is diluted to five times the assay concentration (see Table 18) in Standard Binding Buffer. Typically, the assay concentration of radioligand is a value between one half the KD and the KD of a particular radioligand at its target. 50 μl aliquots of radioligand are dispensed into the wells of a 96-well plate containing 100 μl of Standard Binding Buffer. Then, duplicate 50 μl aliquots of the test and reference compound dilutions are added.
(§2) The 250 μl reactions are incubated at room temperature and shielded from light (to prevent photolysis of light-sensitive ligands) for 1.5 hours, then harvested by rapid filtration onto Whatman GF/B glass fiber filters pre-soaked with 0.3% polyethyleneimine using a 96-well Brandel harverster. Four rapid 500 μl washes are performed with chilled Standard Binding Buffer to reduce non-specific binding. Filters are placed in 6 ml scintillation tubes and allowed to dry overnight. The next day, 4 ml of EcoScint scintillation cocktail (National Diagnostics) are added to each tube. The tubes are capped, labeled, and counted by liquid scintillation counting. […] The filter mats are dried, then scintillant is melted onto the filters and the radioactivity retained on the filters is counted in a Microbeta scintillation counter.
(§3) Raw data (dpm) representing total radioligand binding (i.e. specific+non-specific binding) are plotted as a function of the logarithm of the molar concentration of the competitor (i.e. test or reference compound).
(§4) Adrenergic Receptors: α1A, α1B, α2A, α2B, α2C, β1, β2, β3
(§5) Membrane Fraction Source: Transiently or stably transfected cell lines (e.g. HEK293, COS, CHO, NIH3T3)
(§6) The method is carried out in the manner described for the serotonin receptor assay above, except where described below. Eleven dilutions (5× assay concentration) of the test and reference (see Table 20) compounds are prepared in the appropriate buffer by serial dilution, as previously described. Radioligand is diluted to five times the assay concentration (see Table 21) in the appropriate buffer.
(§7) The 250 μl reactions are incubated at room temperature and shielded from light (to prevent photolysis of light-sensitive ligands) for 1 hour (for α1 receptors, 40 min for α2 receptors, and 1.5 hours for β receptors), then harvested by rapid filtration onto Whatman GF/B glass fiber filters pre-soaked with 0.3% polyethyleneimine using a 96-well Brandel harverster. Four rapid 500-μl washes are performed with chilled distilled water (for α1 and β receptors) or 0.1% polyethyleneimine (for α2 receptors) to reduce non-specific binding. Filters are placed in 6 ml scintillation tubes and allowed to dry overnight and the samples are treated to obtain data as described above.

Assay [2] addresses T2, Alpha1D (Homo sapiens, UniProt P25100).
T2 sequence (P25100 1-572): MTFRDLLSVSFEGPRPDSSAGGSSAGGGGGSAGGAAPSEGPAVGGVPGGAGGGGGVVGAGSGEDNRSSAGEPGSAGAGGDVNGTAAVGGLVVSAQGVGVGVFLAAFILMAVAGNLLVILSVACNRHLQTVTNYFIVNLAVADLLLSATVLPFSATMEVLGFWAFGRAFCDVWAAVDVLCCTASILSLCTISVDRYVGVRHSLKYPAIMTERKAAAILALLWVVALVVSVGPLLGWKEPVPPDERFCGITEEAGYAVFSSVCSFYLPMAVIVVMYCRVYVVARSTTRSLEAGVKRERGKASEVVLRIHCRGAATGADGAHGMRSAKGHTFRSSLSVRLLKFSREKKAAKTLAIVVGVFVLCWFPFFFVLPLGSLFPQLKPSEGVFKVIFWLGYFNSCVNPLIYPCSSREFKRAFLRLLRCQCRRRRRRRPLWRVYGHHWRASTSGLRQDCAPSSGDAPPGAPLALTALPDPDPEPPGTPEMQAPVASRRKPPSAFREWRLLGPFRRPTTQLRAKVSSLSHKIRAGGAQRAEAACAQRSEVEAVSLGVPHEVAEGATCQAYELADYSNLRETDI
The assay is described as follows: Secondary radioligand binding assay (Ki).
Description: as §1, §2, §3, §4, §5, §6, §7

Assay [3] deals with 5-HT1B (Homo sapiens, UniProt P28222). Briefly: Secondary radioligand binding assay (Ki).
Description: (§8) Assay Buffer: Standard Binding Buffer (50 mM Tris-HCl, 10 mM MgCl2, 1 mM EDTA, pH 7.4)
(§9) Membrane Fraction Source: Transiently or stably transfected cell lines (e.g., HEK293, COS, CHO, NIH3T3)
as §1, §2, §3
In assay [4] the target is 5-HT1D (Homo sapiens, UniProt P28221). Briefly: Secondary radioligand binding assay (Ki).
Description: as §8, §9, §1, §2, §3
Assay [5] addresses 5-HT2A (Homo sapiens, UniProt P28223). The assay is described as follows: Secondary radioligand binding assay (Ki).
Description: as §8, §9, §1, §2, §3
Assay [6] addresses 5-HT7 (Homo sapiens, UniProt P34969). The assay is described as follows: Secondary radioligand binding assay (Ki).
Description: as §8, §9, §1, §2, §3
The target of assay [7] is T2, Alpha1D. Briefly: Primary radioligand binding assay (NIMH PDSP). To be noted: primary radiobinding assay, [3H]Prazosin.
The target of assay [8] is T3, dopamine D4 (Homo sapiens, UniProt P21917).
T3 sequence (P21917 1-419): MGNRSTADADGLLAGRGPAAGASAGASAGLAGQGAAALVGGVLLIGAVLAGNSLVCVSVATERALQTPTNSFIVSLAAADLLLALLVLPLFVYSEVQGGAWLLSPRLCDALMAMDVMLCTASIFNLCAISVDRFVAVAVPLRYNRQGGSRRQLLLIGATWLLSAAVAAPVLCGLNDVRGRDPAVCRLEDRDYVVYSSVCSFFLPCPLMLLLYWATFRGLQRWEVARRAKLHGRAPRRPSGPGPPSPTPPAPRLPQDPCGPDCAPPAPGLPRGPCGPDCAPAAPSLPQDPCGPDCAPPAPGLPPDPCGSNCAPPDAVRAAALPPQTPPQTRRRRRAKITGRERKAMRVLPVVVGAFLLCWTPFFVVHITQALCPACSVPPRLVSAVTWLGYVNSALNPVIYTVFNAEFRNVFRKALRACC
The assay is described as follows: Primary radioligand binding assay (NIMH PDSP). To be noted: primary radiobinding assay, N-methylspiperone.

Assay [9] deals with dopamine D1 (Homo sapiens, UniProt P21728). Briefly: Secondary radioligand binding assay (Ki).
Description: as §1, §2, §3
Assay Buffers: Dopamine Binding Buffer (50 mM NaCl, 50 mM HEPES-HCl, 5 mM MgCl2, 0.5 mM EDTA, pH 7.4)
as §5
The method is carried out in the manner described for the serotonin receptor assay above. Eleven dilutions (5× assay concentration) of the test and reference (see Table 19) compounds are prepared in Dopamine Binding Buffer by serial dilution, as previously described. Radioligand is diluted to five times the assay concentration (see Table 20) in Dopamine Binding Buffer.
Assay [10] addresses dopamine D5 (Homo sapiens, UniProt P21918). Briefly: Secondary radioligand binding assay (Ki). Particulars: read-out: Experimental Receptor Binding Data-Ki D5; Table 25, GPCR panel.
Description: as §1
The 250 μl reactions are incubated at room temperature and shielded from light (to prevent photolysis of light-sensitive ligands) for 1.5 hours, then harvested by rapid filtration onto Whatman GF/B glass fiber filters pre-soaked with 0.3% polyethyleneimine using a 96-well Brandel harverster. Four rapid 500 μl washes are performed with chilled Standard Binding Buffer to reduce non-specific binding. Filters are placed in 6 ml scintillation tubes and allowed to dry overnight. The next day, 4 ml of EcoScint scintillation cocktail (National Diagnostics) are added to each tube. The tubes are capped, labeled, and counted by liquid scintillation counting. […] The filter mats are dried, then scintillant is melted onto the filters and the radioactivity retained on the filters is counted in a Microbeta scintillation counter. […]
Assay [11] has as its target T4, 5-HT3 (Homo sapiens, UniProt P46098).
T4 sequence (P46098 24-478): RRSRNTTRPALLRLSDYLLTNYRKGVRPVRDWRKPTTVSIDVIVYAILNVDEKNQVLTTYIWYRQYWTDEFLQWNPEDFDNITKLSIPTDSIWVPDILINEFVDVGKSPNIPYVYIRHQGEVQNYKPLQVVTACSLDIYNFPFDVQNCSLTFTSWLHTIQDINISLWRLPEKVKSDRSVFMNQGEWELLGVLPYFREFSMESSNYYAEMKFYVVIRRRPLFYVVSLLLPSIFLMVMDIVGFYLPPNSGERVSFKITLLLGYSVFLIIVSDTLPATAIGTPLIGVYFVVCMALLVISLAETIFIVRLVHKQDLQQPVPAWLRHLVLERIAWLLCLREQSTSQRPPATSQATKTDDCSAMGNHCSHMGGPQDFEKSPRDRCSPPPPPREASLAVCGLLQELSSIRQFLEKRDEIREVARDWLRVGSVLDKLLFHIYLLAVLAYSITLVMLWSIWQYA
Briefly: Secondary radioligand binding assay (Ki).
Description: as §8, §9, §1
The 250 μl reactions are incubated at room temperature and shielded from light (to prevent photolysis of light-sensitive ligands) for 1.5 hours, then harvested by rapid filtration onto Whatman GF/B glass fiber filters pre-soaked with 0.3% polyethyleneimine using a 96-well Brandel harverster. Four rapid 500 μl washes are performed with chilled Standard Binding Buffer to reduce non-specific binding. Filters are placed in 6 ml scintillation tubes and allowed to dry overnight. […] The tubes are capped, labeled, and counted by liquid scintillation counting. […] The filter mats are dried, then scintillant is melted onto the filters and the radioactivity retained on the filters is counted in a Microbeta scintillation counter. […]

Where [12] appears, read: read-out: Experimental Receptor Binding Data-Ki ALPHA_1B, Table 25, GPCR panel.
The mark [13] stands for this setting: read-out: Experimental Receptor Binding Data-Ki ALPHA_1D, Table 25, GPCR panel.
The mark [14] stands for this setting: read-out: Experimental Receptor Binding Data-Ki D1, Table 25, GPCR panel.

Structures can show the parent of a compound that is named as a salt. Where two headings read alike, the source gives them in different places.
Throughout, for D4 (% inh): test concentration or dose not given here.

Chain of 5-HT1D (P28221 whole entry, species assumed): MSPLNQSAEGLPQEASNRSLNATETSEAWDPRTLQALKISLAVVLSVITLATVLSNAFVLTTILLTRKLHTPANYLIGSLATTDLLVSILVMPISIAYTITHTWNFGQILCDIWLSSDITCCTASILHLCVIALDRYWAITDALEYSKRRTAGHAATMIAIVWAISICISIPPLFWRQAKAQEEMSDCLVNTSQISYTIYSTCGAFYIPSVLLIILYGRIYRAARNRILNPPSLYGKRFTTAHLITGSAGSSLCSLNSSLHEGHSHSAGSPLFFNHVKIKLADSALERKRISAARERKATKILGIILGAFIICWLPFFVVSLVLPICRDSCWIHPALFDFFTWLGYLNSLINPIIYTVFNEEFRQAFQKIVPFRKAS
Chain of 5-HT2A (P28223 whole entry, species assumed): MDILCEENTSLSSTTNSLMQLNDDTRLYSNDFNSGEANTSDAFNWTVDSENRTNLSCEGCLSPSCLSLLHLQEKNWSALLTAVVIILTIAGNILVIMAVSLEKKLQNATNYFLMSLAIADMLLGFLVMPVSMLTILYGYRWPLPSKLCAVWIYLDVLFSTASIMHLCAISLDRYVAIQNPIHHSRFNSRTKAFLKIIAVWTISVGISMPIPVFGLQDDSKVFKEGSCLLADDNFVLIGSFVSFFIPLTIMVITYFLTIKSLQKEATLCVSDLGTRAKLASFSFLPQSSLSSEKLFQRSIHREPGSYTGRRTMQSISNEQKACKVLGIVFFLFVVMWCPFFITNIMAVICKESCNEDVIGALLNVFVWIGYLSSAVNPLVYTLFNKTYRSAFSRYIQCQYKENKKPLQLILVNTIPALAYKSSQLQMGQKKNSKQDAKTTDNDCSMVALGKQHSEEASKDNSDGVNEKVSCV
Chain of 5-HT1B (P28222 whole entry, species assumed): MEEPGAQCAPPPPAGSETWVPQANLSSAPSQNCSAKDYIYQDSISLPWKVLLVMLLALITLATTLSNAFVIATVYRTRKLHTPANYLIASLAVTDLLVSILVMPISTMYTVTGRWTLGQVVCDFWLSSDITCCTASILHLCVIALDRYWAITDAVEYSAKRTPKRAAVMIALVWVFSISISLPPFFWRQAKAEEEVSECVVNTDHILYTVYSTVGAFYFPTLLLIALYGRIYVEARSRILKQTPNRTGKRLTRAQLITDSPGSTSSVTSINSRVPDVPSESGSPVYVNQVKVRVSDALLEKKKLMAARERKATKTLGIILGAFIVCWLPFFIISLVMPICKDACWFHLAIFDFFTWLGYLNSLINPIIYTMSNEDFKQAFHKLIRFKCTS
Chain of 5-HT7 (P34969 whole entry, species assumed): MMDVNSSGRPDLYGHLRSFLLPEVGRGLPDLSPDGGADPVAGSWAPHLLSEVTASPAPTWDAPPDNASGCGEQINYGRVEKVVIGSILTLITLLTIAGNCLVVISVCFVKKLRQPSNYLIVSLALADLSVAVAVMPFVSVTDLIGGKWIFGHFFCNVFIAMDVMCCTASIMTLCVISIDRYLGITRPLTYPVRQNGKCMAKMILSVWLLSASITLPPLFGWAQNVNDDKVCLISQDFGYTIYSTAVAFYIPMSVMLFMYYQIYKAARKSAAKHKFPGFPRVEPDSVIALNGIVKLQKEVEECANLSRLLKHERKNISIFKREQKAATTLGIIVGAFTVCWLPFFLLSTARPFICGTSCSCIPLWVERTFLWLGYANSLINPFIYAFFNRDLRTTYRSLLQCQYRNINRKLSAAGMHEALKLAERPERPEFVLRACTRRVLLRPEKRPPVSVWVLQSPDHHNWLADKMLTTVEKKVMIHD
Chain of dopamine D1 (P21728 whole entry): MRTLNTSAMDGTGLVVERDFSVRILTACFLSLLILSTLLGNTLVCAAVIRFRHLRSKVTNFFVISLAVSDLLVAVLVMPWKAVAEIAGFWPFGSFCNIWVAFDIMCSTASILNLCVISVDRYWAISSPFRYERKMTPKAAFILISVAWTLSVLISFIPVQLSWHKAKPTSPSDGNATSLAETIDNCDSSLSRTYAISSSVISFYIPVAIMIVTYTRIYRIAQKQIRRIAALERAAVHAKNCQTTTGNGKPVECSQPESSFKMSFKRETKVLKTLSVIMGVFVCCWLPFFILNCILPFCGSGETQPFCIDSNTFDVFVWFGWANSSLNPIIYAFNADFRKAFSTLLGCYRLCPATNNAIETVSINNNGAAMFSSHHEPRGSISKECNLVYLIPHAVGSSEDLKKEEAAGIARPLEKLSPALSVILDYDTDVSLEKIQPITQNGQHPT
Chain of dopamine D5 (P21918 whole entry): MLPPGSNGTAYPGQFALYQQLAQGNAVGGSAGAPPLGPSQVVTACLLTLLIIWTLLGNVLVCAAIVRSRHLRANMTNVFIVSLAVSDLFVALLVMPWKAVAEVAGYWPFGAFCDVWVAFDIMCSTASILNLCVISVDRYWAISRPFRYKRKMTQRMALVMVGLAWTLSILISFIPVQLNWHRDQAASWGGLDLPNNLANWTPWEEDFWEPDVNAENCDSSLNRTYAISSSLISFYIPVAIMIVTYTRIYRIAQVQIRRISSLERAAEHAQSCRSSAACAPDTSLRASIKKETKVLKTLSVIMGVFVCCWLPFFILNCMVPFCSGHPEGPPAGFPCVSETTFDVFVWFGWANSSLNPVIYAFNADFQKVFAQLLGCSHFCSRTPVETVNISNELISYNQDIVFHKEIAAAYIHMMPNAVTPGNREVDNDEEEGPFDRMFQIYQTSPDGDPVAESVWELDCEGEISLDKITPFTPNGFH

Take `COc1ccc2c(c1)C(=O)N(CCCN1CCN(c3ccccc3OC)CC1)C2` [GFR-VII-273]: the Ki in [1] (setting [12]) was found to be 323 nM; in assay [1] (read-out: Kiα1B), 323 nM; in [2] (setting [13]) it was 81.1 nM; in assay [2] (read-out: Kiα1D), 81.1 nM; in assay [3] it was 362 nM; in assay [4], 1000 nM. In addition, the results for the Ki in assay [5] and in assay [6] were 956 nM and 545 nM, respectively. The “Alpha1D (% inh)” value in assay [7] came to 99.3 % inh. Also, the “D4 (% inh)” value in [8] is recorded as 99.6 % inh.

On to `COc1ccc2c(c1)C(=O)N(CCN1CCN(c3ccccc3OC)CC1)C2` [GFR-VII-280-HCl], for which the Ki in [1] turned out to be 29.1 nM; in [2], 5.1 nM; in assay [3], 378 nM; in assay [4], 176 nM; in [6], 529 nM. In [7], the “Alpha1D (% inh)” value was 98.7 % inh. In addition, the “D4 (% inh)” value in assay [8] turned out to be 95.9 % inh.

With `COc1ccc2c(c1)C(=O)N(CCN1CCN(c3ccccc3OC)CC1)C2` [GFR-VII-280], the Ki in [1] (setting [12]) was 38.7 nM; in [1] (read-out: Kiα1B), 38.7 nM; in [2] (setting [13]), 12.4 nM; in assay [2] (read-out: Kiα1D), 12.4 nM; in assay [3] (read-out: Experimental Receptor Binding Data-Ki 5HT1B, Table 25, GPCR panel) it was 306 nM; in assay [4] (read-out: Experimental Receptor Binding Data-Ki 5HT1D, Table 25, GPCR panel) it was 139 nM. Moreover, in [7], the “Alpha1D (% inh)” value was 97.3 % inh. Further, the “D4 (% inh)” value in assay [8] is recorded as 97.2 % inh.

For the compound `COc1cc2c(cc1OC)C(=O)N(CCCCN1CCN(c3ccccc3OC)CC1)C2` [GFR-VII-285], the Ki in assay [1] (setting [12]) is 19.3 nM; in assay [1] (read-out: Kiα1B), 19.3 nM; in assay [2] (setting [13]) it was 4.4 nM; in assay [2] (read-out: Kiα1D), 4.4 nM; in assay [9] (setting [14]), 531 nM; in assay [10] it was 1890 nM. Further, the Ki in assay [3] was 130 nM; in assay [4], 298 nM; in assay [5] it was 270 nM; in assay [6], 228 nM. For the same compound, the “Alpha1D (% inh)” value in [7] is reported as 96.8 % inh. Further, the “D4 (% inh)” value in assay [8] is given as 91.6 % inh.

Take `COc1ccc2c(c1)CN(CCCN1CCN(c3ccccc3OC)CC1)C2=O` [GFR-VII-290]: the Ki in [1] (setting [12]) worked out at 608 nM; in [1] (read-out: Kiα1B) it was 608 nM; in assay [2] (setting [13]) it was 56 nM; in assay [2] (read-out: Kiα1D), 56 nM; in assay [9] (setting [14]), 2730 nM; in assay [4], 829 nM. The Ki in assay [5] came to 1000 nM; in assay [6], 732 nM. The “Alpha1D (% inh)” value in assay [7] is 100.5 % inh. The “D4 (% inh)” value in assay [8] is reported as 97.3 % inh.

On to `CC1Cc2ccccc2N1C(=O)CN1CCN(Cc2ccccc2)CC1` (stereo not shown) [STT-00185638, 2-[-4-(benzyl)-piperazin-1-yl]-1-(2-methy-2,3-dihydro-indol-1-yl)-ethanone], for which the Ki stood at 6360 nM in [9], 2110 nM in assay [11] and 4360 nM in assay [6]. Also, the “Alpha1D (% inh)” value in assay [7] worked out at 42.8 % inh. Also, the “D4 (% inh)” value in [8] amounted to 99.4 % inh.
